Laboratory results as given in paper PMC6497424 (ACS Catalysis, 2019).

Experiments:
[1] = molecular target: T1, PtHmfF (P. thermopropionicum HmfF) (Pelotomaculum thermopropionicum, UniProt A5D4Z9); assay: X-ray crystal structure, […] Å, FMN soak; type: binding; conditions: K+ and Mn2+ present; stable analogue in prFMN site; untagged enzyme
T1 construct: gene UbiD; codon-optimised, full length; pET30a C-terminal His-tag from E. coli BL21(DE3), coexpressed with E. coli UbiX; untagged (pET21b) for crystals; hexamer (D3); The eightfold dimer variant is in pET28a (His-tag)

[2] = molecular target: T1, PtHmfF (P. thermopropionicum HmfF); assay: in vitro reconstitution of apo-enzyme; UV-vis spectra and activity; type: biochemical; conditions: reduced prFMN added anaerobically, then oxidative maturation in air; FDCA 900 μM, 25 °C
[3] = molecular target: T2, PtHmfF (P. thermopropionicum HmfF) (Pelotomaculum thermopropionicum, UniProt A5D4Z9, A315N/N348R/F351D/T355N/A388P/F393T/V395F/M399R); assay: X-ray crystal structure, […] Å; type: binding; conditions: dimer variant; cofactor copurified from UbiX coexpression
T2 construct: gene UbiD; codon-optimised, full length; pET30a C-terminal His-tag from E. coli BL21(DE3), coexpressed with E. coli UbiX; untagged (pET21b) for crystals; hexamer (D3); The eightfold dimer variant is in pET28a (His-tag)

[4] = molecular target: Pelotomaculum thermopropionicum 2,5-furandicarboxylic acid decarboxylase (HmfF), wild type, untagged (Pelotomaculum thermopropionicum); assay: crystal structure; untagged PtHmfF, space group P21, crystals soaked with FMN in the presence of K+ and Mn2+, data to 2.7 Å, six monomers in the asymmetric unit; solved by Se-Met SAD
[5] = molecular target: Pelotomaculum thermopropionicum HmfF dimer variant (A315N, N348R, F351D, T355N, A388P, F393T, V395F, M399R) (Pelotomaculum thermopropionicum); assay: crystal structure; PtHmfF dimer variant with prFMN, crystals grown at 4 °C, 2.3 Å, molecular replacement with the WT monomer; two monomers in the asymmetric unit
[6] = molecular target: Pelotomaculum thermopropionicum HmfF dimer variant (A315N, N348R, F351D, T355N, A388P, F393T, V395F, M399R) (Pelotomaculum thermopropionicum); assay: SEC-MALS; 25 °C; 500 μL of 1.5 mg/mL protein on Superdex 200 10/300GL; 200 mM KCl, 1 mM MnCl2, 50 mM Tris pH 7.5; 0.75 mL/min

With `Cc1cc2nc3c(=O)[nH]c(=O)nc-3n(C[C@H](O)[C@H](O)[C@H](O)COP(=O)(O)O)c2cc1C` [FMN] the “X-ray crystal structure, 2.7 Å, FMN soak” value [1] was “revealing clear electron density for both the FMN and the associated metal ions”.
For `Cc1cc2c3c(c1C)C(C)(C)CC=[N+]3c1c([nH]c(=O)[nH]c1=O)N2C[C@H](O)[C@H](O)[C@H](O)COP(=O)(O)O` [prFMN], the “in vitro reconstitution of apo-enzyme; UV-vis spectra and activity” value [2] was “HmfF requires oxidative maturation of prFMN for activity” and the “X-ray crystal structure, 2.3 Å” value [3] was “the dimer variant crystals contain prFMN in the active site”.
In the case of “Pelotomaculum thermopropionicum 2,5-furandicarboxylic acid decarboxylase (HmfF), wild type, untagged (enzyme)”, the stoichiometry N [4] is reported as 6.
Work on “Pelotomaculum thermopropionicum HmfF dimer variant (A315N, N348R, F351D, T355N, A388P, F393T, V395F, M399R) (enzyme)” yielded a stoichiometry N [5] of 2 and a stoichiometry N [6] of 2.
